Assay results reported in patent US9974800B2 (priority 2014, dated 2018).

System: Ebola virus
Format: cell-based
Conditions: alone

Compound: CC[C@H]1OC(=O)[C@H](C)[C@@H](O[C@H]2C[C@@](C)(OC)[C@@H](O)[C@H](C)O2)[C@H](C)[C@@H](O[C@@H]2O[C@H](C)C[C@H](N(C)C)[C@H]2O)[C@](C)(OC)C[C@@H](C)C(=O)[C@H](C)[C@@H](O)[C@]1(C)O [Clarithromycin]
- inhibit EBOV infection in primary macrophages: can inhibit EBOV infection
